From PubChem BioAssay AID1963861 (Molecular Pharmacology Branch, DTP, NCI, 2024)
pIC50: −log10 of the molar value.

System: 885724-159-R-J1-PDC KRAS PDC multicell spheroid viability
Test: Anticancer human tumor 885724-159-R-J1-PDC patient-derived pancreatic adenocarcinoma cell line growth inhibition [KRAS2]
Conditions: for pIC50: curve of first compound; for viability, T/C: stronger effect = lower value
Method in brief: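 KRAS-mutant tumor cells were grown as spheroids with HUVEC endothelial cells and human MSCs as stroma. Targeted agents were tested alone and with KRAS pathway inhibitors. Doses started at or near clinical Cmax, or 10 microM, descending half-log.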

[1] = second compound 0.1 µM, first compound 0.0316 µM
[2] = second compound 0.1 µM, first compound 0.1 µM
[3] = second compound 0.1 µM, first compound 0.316 µM
[4] = second compound 0.1 µM, first compound 1 µM
[5] = second compound 0.1 µM, first compound 3.16 µM
[6] = second compound 0.1 µM, first compound 10 µM
[7] = second compound 0.316 µM, first compound 0.0316 µM
[8] = second compound 0.316 µM, first compound 0.1 µM
[9] = second compound 0.316 µM, first compound 0.316 µM
[10] = second compound 0.316 µM, first compound 1 µM
[11] = second compound 0.316 µM, first compound 3.16 µM
[12] = second compound 0.316 µM, first compound 10 µM
[13] = second compound 1 µM, first compound 0.0316 µM
[14] = second compound 1 µM, first compound 0.1 µM
[15] = second compound 1 µM, first compound 0.316 µM
[16] = second compound 1 µM, first compound 1 µM
[17] = second compound 1 µM, first compound 3.16 µM
[18] = second compound 1 µM, first compound 10 µM
[19] = second compound 3.16 µM, first compound 0.0316 µM
[20] = second compound 3.16 µM, first compound 0.1 µM
[21] = second compound 3.16 µM, first compound 0.316 µM
[22] = second compound 3.16 µM, first compound 1 µM
[23] = second compound 3.16 µM, first compound 3.16 µM
[24] = second compound 3.16 µM, first compound 10 µM
[25] = second compound 10 µM, first compound 0.0316 µM
[26] = second compound 10 µM, first compound 0.1 µM
[27] = second compound 10 µM, first compound 0.316 µM
[28] = second compound 10 µM, first compound 1 µM
[29] = second compound 10 µM, first compound 3.16 µM
[30] = second compound 10 µM, first compound 10 µM
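Also: spheroids exposed to agents for 7 days before readout.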

Row | Compound | pIC50 (second compound 0.1 µM) | pIC50 (second compound 0.316 µM) | pIC50 (second compound 1 µM) | pIC50 (second compound 3.16 µM) | pIC50 (second compound 10 µM) | viability, T/C [1] [%] | viability, T/C [2] [%] | viability, T/C [3] [%] | viability, T/C [4] [%] | viability, T/C [5] [%] | viability, T/C [6] [%] | viability, T/C [7] [%] | viability, T/C [8] [%] | viability, T/C [9] [%] | viability, T/C [10] [%] | viability, T/C [11] [%] | viability, T/C [12] [%] | viability, T/C [13] [%] | viability, T/C [14] [%] | viability, T/C [15] [%] | further results
1 | COc1cc(Nc2ncc3c(n2)-c2ccc(Cl)cc2C(c2c(F)cccc2OC)=NC3)ccc1C(=O)O + CC1OCC2(CCN(c3cnc(Sc4ccnc(N)c4Cl)c(N)n3)CC2)C1N | < 5.00 | < 5.00 | < 5.00 | < 5.00 | < 5.00 | 104 | 91.3 | 92.4 | 96.7 | 99 | 103 | 95.1 | 90.7 | 85.8 | 84.1 | 91.2 | 93.5 | 90 | 88.8 | 78 | viability, T/C [16]: 79.6%; viability, T/C [17]: 79.4%; viability, T/C [18]: 87.7%; viability, T/C [19]: 81.7%; viability, T/C [20]: 82.2%; viability, T/C [21]: 76.4%; viability, T/C [22]: 73.8%; viability, T/C [23]: 75.2%; viability, T/C [24]: 80.3%; viability, T/C [25]: 76.5%; viability, T/C [26]: 69.3%; viability, T/C [27]: 70.6%; viability, T/C [28]: 67.7%; viability, T/C [29]: 70.9%; viability, T/C [30]: 70.9%
2 | COc1cc2nccc(Oc3ccc(NC(=O)C4(C(=O)Nc5ccc(F)cc5)CC4)cc3)c2cc1OC + CC1OCC2(CCN(c3cnc(Sc4ccnc(N)c4Cl)c(N)n3)CC2)C1N | < 5.00 | < 5.00 | 5.51 | 5.53 | 5.66 | 87.1 | 87.9 | 87.9 | 82.7 | 59.1 | 63 | 84.7 | 79.9 | 83.7 | 84.7 | 60.5 | 51.1 | 74.3 | 71.2 | 76.2 | viability, T/C [16]: 72.5%; viability, T/C [17]: 49.1%; viability, T/C [18]: 50.3%; viability, T/C [19]: 75.5%; viability, T/C [20]: 82.8%; viability, T/C [21]: 72.1%; viability, T/C [22]: 67.7%; viability, T/C [23]: 45.8%; viability, T/C [24]: 52.3%; viability, T/C [25]: 71.4%; viability, T/C [26]: 62.9%; viability, T/C [27]: 67.4%; viability, T/C [28]: 63.3%; viability, T/C [29]: 44%; viability, T/C [30]: 39.4%
3 | O=C(c1cc(Cc2n[nH]c(=O)c3ccccc23)ccc1F)N1CCN(C(=O)C2CC2)CC1 + CC1OCC2(CCN(c3cnc(Sc4ccnc(N)c4Cl)c(N)n3)CC2)C1N | < 5.00 | < 5.00 | < 5.00 | < 5.00 | < 5.00 | 111 | 113 | 106 | 104 | 100 | 95.8 | 103 | 109 | 104 | 103 | 104 | 89.6 | 145 | 149 | 143 | viability, T/C [16]: 137%; viability, T/C [17]: 118%; viability, T/C [18]: 104%; viability, T/C [19]: 81%; viability, T/C [20]: 90.4%; viability, T/C [21]: 85.1%; viability, T/C [22]: 86%; viability, T/C [23]: 78.9%; viability, T/C [24]: 77.6%; viability, T/C [25]: 78.3%; viability, T/C [26]: 87.4%; viability, T/C [27]: 132%; viability, T/C [28]: 81%; viability, T/C [29]: 70.7%; viability, T/C [30]: 67.1%
